From article PMC10057445, “Interactions of N-Mannich Bases of Pyrrolo[3,4-c]pyrrole with Artificial Models of Cell Membranes and Plasma Proteins, Evaluation of Anti-Inflammatory and Antioxidant Activity” (Membranes, 2023) come the findings set out here.

For the assay, the target named is T1, human serum albumin (HSA) (Homo sapiens, UniProt P02768).
T1 construct: gene ALB; commercial powder (Sigma Aldrich), mature plasma protein
The assay is described as follows: intrinsic fluorescence quenching, ex […] nm. Format: binding. The conditions noted are these: double-log; 297 K, pH 7.4 phosphate, no site marker.

Each structure is given as a SMILES string.

T1 sequence (P02768 25-609): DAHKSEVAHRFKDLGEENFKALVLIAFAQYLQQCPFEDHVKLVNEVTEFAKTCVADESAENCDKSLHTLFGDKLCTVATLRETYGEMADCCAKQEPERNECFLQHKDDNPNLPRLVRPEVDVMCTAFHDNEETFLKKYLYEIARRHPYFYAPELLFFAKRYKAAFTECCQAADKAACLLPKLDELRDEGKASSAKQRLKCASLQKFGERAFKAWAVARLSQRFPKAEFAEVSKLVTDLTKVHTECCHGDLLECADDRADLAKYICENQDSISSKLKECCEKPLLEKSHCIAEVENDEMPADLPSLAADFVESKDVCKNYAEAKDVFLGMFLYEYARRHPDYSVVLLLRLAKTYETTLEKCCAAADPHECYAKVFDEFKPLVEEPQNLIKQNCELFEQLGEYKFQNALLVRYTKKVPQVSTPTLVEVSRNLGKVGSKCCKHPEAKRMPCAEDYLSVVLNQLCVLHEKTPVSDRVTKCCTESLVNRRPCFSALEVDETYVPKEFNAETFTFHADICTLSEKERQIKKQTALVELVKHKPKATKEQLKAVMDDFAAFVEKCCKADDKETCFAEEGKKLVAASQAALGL

For `Cc1c2c(c(C)n1-c1ccccc1)C(=O)N(CN1CCN(c3ccccc3)CC1)C2=O` [7a], the “Binding / Kb × 10^3 [dm^3.mol^-1]” value is reported as 9.12 × 10^3 dm^3·mol^-1.

As for `Cc1c2c(c(C)n1-c1ccccc1)C(=O)N(CN1CCN(S(C)(=O)=O)CC1)C2=O` [7l], the “Binding / Kb × 10^3 [dm^3.mol^-1]” value is 1.66 × 10^3 dm^3·mol^-1.
